Source: patent US9701670B2, “Pyrazolyl-ureas as kinase inhibitors” (RESPIVERT LIMITED, priority 2013, dated 2017)

Assays:
[1] = test system: Differentiated U937 cells; test: (l) Cell viability: MTT assay; type: cell-based, human; conditions: 1 μg/mL
Procedure: Differentiated U937 cells are pre-incubated with each test compound (final concentration 1 μg/mL or 10 μg/mL in 200 μL media indicated below) under two protocols: the first for 4 hr in 5% FCS RPMI1640 media and the second in 10% FCS RPMI1640 media for 24 h. The supernatant is replaced with new media (200 μL) and MTT stock solution (10 μL, 5 mg/mL) is added to each well. After incubation for 1 hr the media are removed, DMSO (200 μL) is added to each well and the plates are shaken lightly for 1 hr prior to reading the absorbance at 550 nm. The percentage loss of cell viability is calculated for each well relative to vehicle (0.5% DMSO) treatment. Consequently an apparent increase in cell viability for drug treatment relative to vehicle is tabulated as a negative percentage.

[2] = target: p38 MAPKα isoform (MAPK14) (Homo sapiens (Human), UniProt Q16539); test: p38 MAPKα enzyme inhibition (FRET, Z-LYTE), Method 1; type: biochemical; conditions: Method 1 (Table 4a1)
Chain of p38 MAPKα isoform (MAPK14) (Q16539 whole entry, canonical isoform): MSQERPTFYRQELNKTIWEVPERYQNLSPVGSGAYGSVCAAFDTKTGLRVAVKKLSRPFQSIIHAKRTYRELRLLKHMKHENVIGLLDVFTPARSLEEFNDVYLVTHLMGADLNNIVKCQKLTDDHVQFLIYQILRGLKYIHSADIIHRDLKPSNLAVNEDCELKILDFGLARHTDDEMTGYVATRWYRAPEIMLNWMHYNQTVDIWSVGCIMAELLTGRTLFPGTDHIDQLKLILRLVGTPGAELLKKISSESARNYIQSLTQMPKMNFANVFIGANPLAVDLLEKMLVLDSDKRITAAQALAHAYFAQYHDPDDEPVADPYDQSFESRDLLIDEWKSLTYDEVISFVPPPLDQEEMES
Procedure: The enzyme inhibitory activities of compounds disclosed herein are determined by FRET using synthetic peptides labelled with both donor and acceptor fluorophores (Z-LYTE, Invitrogen Ltd., Paisley, UK).
The inhibitory activities of test compounds against the p38 MAPKα isoform (MAPK14: Invitrogen), are evaluated indirectly by determining the level of activation/phosphorylation of the down-stream molecule, MAPKAP-K2. The p38 MAPKα protein (80 ng/mL, 2.5 μL) is mixed with the test compound (2.5 μL of either 4 μg/mL, 0.4 μg/mL, 0.04 μg/mL or 0.004 μg/mL) for 2 hr at RT. […] The mixture is incubated for 1 hr at RT. Development reagent (protease, 5 μL) is added for 1 hr prior to detection in a fluorescence microplate reader (Varioskan® Flash, ThermoFisher Scientific).
In all cases, the site-specific protease cleaves non-phosphorylated peptide only and eliminates the FRET signal. Phosphorylation levels of each reaction are calculated using the ratio of coumarin emission (donor) over fluorescein emission (acceptor), for which high ratios indicate high phosphorylation and low ratios indicate low phosphorylation levels.

Row | IC50 [2] | Structure (SMILES) | Cell viability at time point in d-U937 cells 4 h [1] | Cell viability at time point in d-U937 cells 24 h [1]
1 |  | COc1ccc(C(=O)NCCN(C)C)cc1Nc1nccc(Oc2ccc(NC(=O)Nc3cc(C(C)(C)C)nn3-c3ccc(C)cc3)c3ccccc23)n1 [Example 29, 3-((4-((4-(3-(3-(tert-butyl)-1-(p-tolyl)-1H-pyrazol-5-yl)ureido)naphthalen-1-yl)oxy)pyrimidin-2-yl)amino)-N-(2-(dimethylamino)ethyl)-4-methoxybenzamide] | −ve (−ve and +ve indicate that the value is below and above respectively, the no significant effect threshold, defined as 30% inhibition at 1 μg/mL at the time point indicated.) | −ve (−ve and +ve indicate that the value is below and above respectively, the no significant effect threshold, defined as 30% inhibition at 1 μg/mL at the time point indicated.)
2 | 34 nM | CNC(=O)c1cccc(Nc2nccc(Oc3ccc(NC(=O)Nc4cc(C(C)(C)C)nn4-c4ccc(C)cc4)c4ccccc34)n2)c1 [Example 16, 3-((4-((4-(3-(3-(tert-butyl)-1-(p-tolyl)-1H-pyrazol-5-yl)ureido)naphthalen-1-yl)oxy)pyrimidin-2-yl)amino)-N-methylbenzamide] | −ve (−ve and +ve indicate that the value is below and above respectively, the no significant effect threshold, defined as 30% inhibition at 1 μg/mL at the time point indicated.) | −ve (−ve and +ve indicate that the value is below and above respectively, the no significant effect threshold, defined as 30% inhibition at 1 μg/mL at the time point indicated.)
3 | 12 nM | COc1ccc(-n2nc(C(C)C)cc2NC(=O)Nc2ccc(Oc3ccnc(Nc4ccc(C(=O)NCCN5CCOCC5)cc4OC)n3)c3ccccc23)cc1 [Example 38] | −ve (−ve and +ve indicate that the value is below and above respectively, the no significant effect threshold, defined as 30% inhibition at 1 μg/mL at the time point indicated.) | −ve (−ve and +ve indicate that the value is below and above respectively, the no significant effect threshold, defined as 30% inhibition at 1 μg/mL at the time point indicated.)
4 | 27 nM | Cc1ccc(-n2nc(C(C)(C)C)cc2NC(=O)Nc2ccc(Oc3ccnc(Nc4cccc(C(N)=O)c4)n3)c3ccccc23)cc1 [Example 2, 3-((4-((4-(3-(3-(tert-Butyl)-1-(p-tolyl)-1H-pyrazol-5-yl)ureido)naphthalen-1-yl)oxy)pyrimidin-2-yl)amino)benzamide] | −ve (−ve and +ve indicate that the value is below and above respectively, the no significant effect threshold, defined as 30% inhibition at 1 μg/mL at the time point indicated.) | −ve (−ve and +ve indicate that the value is below and above respectively, the no significant effect threshold, defined as 30% inhibition at 1 μg/mL at the time point indicated.)
5 | 8 nM | COc1ccc(C(=O)NCCN2CCOCC2)cc1Nc1nccc(Oc2ccc(NC(=O)Nc3cc(C(C)(C)C)nn3-c3ccc(C)cc3)c3ccccc23)n1 [Example 31, 3-((4-((4-(3-(3-(tert-butyl)-1-(p-tolyl)-1H-pyrazol-5-yl)ureido)naphthalen-1-yl)oxy)pyrimidin-2-yl)amino)-4-methoxy-N-(2-morpholinoethyl)benzamide] | −ve (−ve and +ve indicate that the value is below and above respectively, the no significant effect threshold, defined as 30% inhibition at 1 μg/mL at the time point indicated.) | −ve (−ve and +ve indicate that the value is below and above respectively, the no significant effect threshold, defined as 30% inhibition at 1 μg/mL at the time point indicated.)
6 |  | COc1ccc(Nc2nccc(Oc3ccc(NC(=O)Nc4cc(C(C)(C)C)nn4-c4ccc(C)cc4)c4ccccc34)n2)cc1C(=O)NCCN1CCOCC1 [Example 13, 5-((4-((4-(3-(3-(tert-Butyl)-1-(p-tolyl)-1H-pyrazol-5-yl)ureido)naphthalen-1-yl)oxy)pyrimidin-2-yl)amino)-2-methoxy-N-(2-morpholinoethyl)benzamide] | −ve (−ve and +ve indicate that the value is below and above respectively, the no significant effect threshold, defined as 30% inhibition at 1 μg/mL at the time point indicated.) | −ve (−ve and +ve indicate that the value is below and above respectively, the no significant effect threshold, defined as 30% inhibition at 1 μg/mL at the time point indicated.)
7 |  | Cc1ccc(-n2nc(C(C)C)cc2NC(=O)Nc2ccc(Oc3ccnc(Nc4cc(C(=O)NCCN5CCOCC5)cc(C(F)(F)F)c4)n3)c3ccccc23)cc1 [Example 7, 3-((4-((4-(3-(3-isopropyl-1-(p-tolyl)-1H-pyrazol-5-yl)ureido)naphthalen-1-yl)oxy)pyrimidin-2-yl)amino)-N-(2-morpholinoethyl)-5-(trifluoromethyl)benzamide] | −ve (−ve and +ve indicate that the value is below and above respectively, the no significant effect threshold, defined as 30% inhibition at 1 μg/mL at the time point indicated.) | −ve (−ve and +ve indicate that the value is below and above respectively, the no significant effect threshold, defined as 30% inhibition at 1 μg/mL at the time point indicated.)
8 | 9.6 nM | COc1ccc(-n2nc(C(C)(C)C)cc2NC(=O)Nc2ccc(Oc3cc(Nc4cc(OC)cc(C(=O)NCCN5CCOCC5)c4)ncn3)c(C)c2C)cc1 [Example 91, 3-((6-(4-(3-(3-(tert-Butyl)-1-(4-methoxyphenyl)-1H-pyrazol-5-yl)ureido)-2,3-dimethylphenoxy)pyrimidin-4-yl)amino)-5-methoxy-N-(2-morpholinoethyl)benzamide] |  | 
9 |  | Cc1ccc(-n2nc(C(C)C)cc2NC(=O)Nc2ccc(Oc3ccnc(Nc4cccc(C(=O)NCCN5CCOCC5)c4)n3)c3ccccc23)cc1 [Example 19, 3-((4-((4-(3-(3-isopropyl-1-(p-tolyl)-1H-pyrazol-5-yl)ureido)naphthalen-1-yl)oxy)pyrimidin-2-yl)amino)-N-(2-morpholinoethyl)benzamide] | −ve (−ve and +ve indicate that the value is below and above respectively, the no significant effect threshold, defined as 30% inhibition at 1 μg/mL at the time point indicated.) | −ve (−ve and +ve indicate that the value is below and above respectively, the no significant effect threshold, defined as 30% inhibition at 1 μg/mL at the time point indicated.)
10 |  | COc1ccc(-n2nc(C(C)C)cc2NC(=O)Nc2ccc(Oc3ccnc(Nc4cc(OC)cc(C(=O)NCCN(C)C)c4)n3)c3ccccc23)cc1 [Example 6, N-(2-(Dimethylamino)ethyl)-3-((4-((4-(3-(3-isopropyl-1-(4-methoxyphenyl)-1H-pyrazol-5-yl)ureido)naphthalen-1-yl)oxy)pyrimidin-2-yl)amino)-5-methoxy benzamide] | −ve (−ve and +ve indicate that the value is below and above respectively, the no significant effect threshold, defined as 30% inhibition at 1 μg/mL at the time point indicated.) | −ve (−ve and +ve indicate that the value is below and above respectively, the no significant effect threshold, defined as 30% inhibition at 1 μg/mL at the time point indicated.)
11 |  | COc1ccc(-n2nc(C(C)C)cc2NC(=O)Nc2ccc(Oc3ccnc(Nc4cc(C)cc(C(=O)NCCN5CCOCC5)c4)n3)c3ccccc23)cc1 [Example 45, 3-((4-((4-(3-(3-isopropyl-1-(4-methoxyphenyl)-1H-pyrazol-5-yl)ureido)naphthalen-1-yl)oxy)pyrimidin-2-yl)amino)-5-methyl-N-(2-morpholinoethyl)benzamide] | −ve (−ve and +ve indicate that the value is below and above respectively, the no significant effect threshold, defined as 30% inhibition at 1 μg/mL at the time point indicated.) | −ve (−ve and +ve indicate that the value is below and above respectively, the no significant effect threshold, defined as 30% inhibition at 1 μg/mL at the time point indicated.)
12 |  | COc1cc(Nc2nccc(Oc3ccc(NC(=O)Nc4cc(C(C)(C)C)nn4-c4ccc(OC)nc4)c4ccccc34)n2)cc(C(=O)NCCN2CCOCC2)c1 [Example 57, 3-((4-((4-(3-(3-(tert-butyl)-1-(6-methoxypyridin-3-yl)-1H-pyrazol-5-yl)ureido)naphthalen-1-yl)oxy)pyrimidin-2-yl)amino)-5-methoxy-N-(2-morpholinoethyl)benzamide] | −ve (−ve and +ve indicate that the value is below and above respectively, the no significant effect threshold, defined as 30% inhibition at 1 μg/mL at the time point indicated.) | −ve (−ve and +ve indicate that the value is below and above respectively, the no significant effect threshold, defined as 30% inhibition at 1 μg/mL at the time point indicated.)
